Data on two compounds can be found in patent US20150374725A1, “METHODS AND COMPOSITIONS FOR TREATING AND PREVENTING INTESTINAL INJURY AND DISEASES RELATED TO TIGHT JUNCTION DYSFUNCTION” (PRELIEF INC., priority 2013, published 2015).

Series [1] deals with Caco-2 cells. The series is described as follows: Baseline mannitol flux across Caco-2 monolayers on transwell inserts. In kind it is cell-based, human. The note with it: increasing concentrations of CGP, FIG. 1. The protocol:
Experiments were conducted on Caco-2 cells, a line of heterogeneous human epithelial colorectal adenocarcinoma cells derived from a colorectal carcinoma and grown on transwell permeable inserts. Despite their origins, in culture these cells express the characteristics of small intestinal enterocytes upon prolonged culture (C. Jumarie et al. J Cell. Physiol. 149: 24-33, (1991)). They are widely used as a model of transepithelial transport in the small intestine, and are considered a model for celiac disease (G. Iacomino et al. J Agric Food Chem. 6; 61(5):1088-962013 (2013); I. Caputo et al. PLoS One. 7(9):e45209 (2012); T. Rauhavirta et al. J Clin Immunol.; 33(1):134-42 (2013)).
The TEER results are verified by measuring the flux of mannitol, a polyhydroxy alcohol, across the cell monolayer. Mannitol flux is exclusively by the paracellular route, so that its movement is inversely proportional to the tightness of the tight junctions. Flux is measured in both apical to basolateral and basolateral to apical directions. The rate of flux is used to calculate a permeability coefficient for the monolayers. […]
Baseline values were obtained for each of these parameters in unstimulated cells in the presence and absence of increasing concentrations of CGP. The time course of TEER development, as well as the appropriate concentration of CGP, was determined experimentally. […]

In series [2] the test system is Caco-2 cells. The series is described as follows: Baseline trans-epithelial electrical resistance (TEER). The class given is cell-based, human.
In series [3] the test system is Caco-2 cells. The experiment in a line: Baseline sphingosine 1-phosphate in media by ELISA. The class given is cell-based, human. The note with it: 24 hours incubation, increasing concentrations of CGP, FIG. 3. The protocol: It is believed that CGP elevates S1P concentrations by inhibiting dephosphorylation. S1P concentrations are measured in the media of Caco-2 cells using a commercially available ELISA kit (e.g., Echelon Catalog # K-1900). The S1P concentrations are measured in the media of Caco-2 cells in the presence and absence of CGP. Cells were incubated for 24 hours in the presence of increasing concentrations of CGP. The media was removed and assayed for […] by enzyme-linked immunoassay (ELISA).

Series [4] relates to Caco-2 cells. The series is described as follows: Baseline E-cadherin expression. The class given is cell-based, human. The protocol:
(3) E-Cadherin Expression:
E-cadherin is the principle protein of tight junctions. The level of E-cadherin is measured in homogenized Caco-2 cells by western blot analysis using commercially available antibodies. Since it is possible that E-cadherin might be expressed as a protein, but sequestered away from the cell membrane, surface E-cadherin is also measured using either flow cytometry or fluorescent microscopy. The ratio of surface to total E-cadherin is calculated. The expression levels of E-cadherin are measured in Caco-2 cells in the presence and absence of CGP. The expression levels of other proteins of tight junctions in Caco-2 cells in the presence or absence of CGP can also be measured using methods known in the art in view of the present disclosure.

The subject of series [5] is Caco-2 cells. The experiment in a line: Mannitol Flux Assay under ischemia-mimicking conditions (no glucose, 1% oxygen). In kind it is cell-based, human. As to the method: Mannitol Flux Assay was performed as follows. At the start of the experiment (time 0), the media on the cells was changed to one containing no glucose and no fetal calf serum, and the environment was changed from 95% […]/5% CO2, to 1% oxygen, 5% CO2 and 94% nitrogen. These conditions mimic ischemia (no food, no oxygen).
It was observed that cells responded to the ischemia conditions by letting go of non-essential functions, like maintaining tight junctions. It appears that by adding CGP, the cells were able to retain tight junction integrity for a longer period of time.
Specifically, Table 2 and FIG. 4 show the percentage increase in mannitol penetration at two and four hours after CGP administration. The movement of mannitol is inversely proportional to the tightness of the tight junctions. It can be seen that the magnitude of the increase in tightness of the tight junctions (or decrease in mannitol flux) was proportional to the concentration of CGP in the media. While it is possible that the cells are merely using the glycerol phosphate to replace glucose, this is extremely unlikely, as the effect persists even at 0.000001 molar CGP. The usual glucose concentration in the media is around 10 mM, ten times greater than the highest CGP concentration, and 10,000 times greater than the lowest concentration of CGP.

Series [6] relates to Caco-2 cells. The series is described as follows: Apical to basolateral [14C]mannitol flux during hypoxia. To be noted: FIG. 5. The class given is cell-based, human. As to the method: (§1) The effect of hypoxia on transepithelial permeability was measured for each parameter in the presence and absence of CGP. Cells were grown to confluence in normoxic conditions on transwell inserts, then transferred to a hypoxia chamber (95% N2/5% CO2) and media was changed to one sparged with 95% N2/5% CO2 and containing no glucose. Under these conditions, which simulate ischemia, the partial pressure of residual oxygen is less than 25 mm Hg (6%). Control wells contained only media; the remaining wells contained increasing concentrations of calcium glycerophosphate. TEER and mannitol flux were measured in the hypoxia chamber. E-Cadherin expression or S1P determination was determined in room air using samples prepared in the hypoxia chamber. Hypoxia may decrease TEER and S1P, increase both apical to basolateral and basolateral to apical mannitol flux without changing E-cadherin expression. These effects may be mitigated by CGP.
Hypoxia/ischemia is a state of diminished oxygen and nutrient supply such that cellular demands are not met. […] It was hypothesized that the increased transepithelial permeability is the consequence of intestinal hypoxia (itself a consequence of diversion of blood flow from the gut during heavy exercise), and that the permeability might be alleviated by CGP treatment. […]

Series [7] deals with Caco-2 cells. The experiment in a line: TEER during hypoxia. To be noted: FIG. 6. The class given is cell-based, human. The protocol: as §1
Hypoxia/ischemia is a state of diminished oxygen and nutrient supply such that cellular demands are not met. […]
For these studies, cells were grown on transwells until confluent, as measured by TEER values of […]. As there is some variability in baseline TEER, all data have been expressed as a % of baseline TEER. […]

Series [8] has as its system Caco-2 cells. The experiment in a line: Transepithelial mannitol flux induced by cytomix. In kind it is cell-based, human. To be noted: cytomix plus CGP, FIG. 7.
Experimental: The effect of exogenous cytokines was measured for each parameter in the presence and absence of CGP. […] Cells were grown to confluence on transwell inserts, then challenged with a mixture of the cytokines TNFα (tumor necrosis factor alpha), ILβ (interleukin beta), and IFγ (interferon gamma) (“cytomix”) in the presence or absence of increasing concentrations of CGP. At the appropriate time points, apical to basolateral mannitol flux was measured. TEER, E-Cadherin expression and media concentrations of S1P were measured in separate experiments.
Series [9] concerns Caco-2 cells. The series is described as follows: TEER during cytomix treatment. The note with it: FIG. 8. In kind it is cell-based, human. The protocol:
The effect of exogenous cytokines was measured for each parameter in the presence and absence of CGP. Both hypoxia and celiac disease are characterized by the release of cytokines by cells of the immune system. These inflammatory mediators increase monolayer permeability (M. Bayardo et al. Clin Exp Immunol.; 168(1):95-104 (2012)). Cells were grown to confluence on transwell inserts, then challenged with a mixture of the cytokines TNFα (tumor necrosis factor alpha), ILβ (interleukin beta), and IFγ (interferon gamma) (“cytomix”) in the presence or absence of increasing concentrations of CGP. At the appropriate time points, apical to basolateral mannitol flux was measured. TEER, E-Cadherin expression and media concentrations of S1P were measured in separate experiments. […] Exogenous cytokines may decrease TEER and increase mannitol flux.
Cytokines are a category of small proteins that are important in cell-cell signaling. There are many types and functions of cytokines. Three of the cytokines, TNFα (tumor necrosis factor alpha), ILβ (interleukin beta), and IFγ (interferon gamma) are involved in cell signaling during inflammation. […] First, neutrophils and other cells mediating the immune response are recruited to ischemic tissue. Second, the intestinal damage of celiac disease is dependent on inflammation. […]

Series [10] in a line: Solubility in water. In kind it is physicochemical.
In series [11] the test system is cultured enterocytes. To be noted: cited from earlier work.

Regarding `O=P([O-])([O-])OCC(O)CO.[Ca+2]` (centres unmarked) [CGP, 1,2,3-propanetriol, mono(dihydrogen phosphate) calcium salt (1:1)], the “effect on baseline mannitol flux across the barrier” value in [1] is listed as “no significant effect”. The “persistence of the CGP effect on baseline TEER” value in [2] (FIG. 2) is “gone by four hours”. Moreover, in [2] (FIG. 2, noticeable at two hours), the “effect on the citrate-induced reduction in baseline TEER” value is on record as “prevented”. Besides, the “effect on sphingosine 1-phosphate concentrations in the media” value in series [3] is listed as “does not appear to have any effect”. The “effect on E-Cadherin expression” value in series [4] is reported as “may increase, but most likely does not change”. The “mannitol penetration, Disintegrations Per Minute” value is reported as 77.04 Disintegrations Per Minute in [5] (CGP 0.000001 M, 2 hours); 275.0632 Disintegrations Per Minute in [5] (CGP 0.000001 M, 4 hours); 67.95 Disintegrations Per Minute in series [5] (CGP 0.00001 M, 2 hours); 195.9237 Disintegrations Per Minute in series [5] (CGP 0.00001 M, 4 hours); 50.47 Disintegrations Per Minute in series [5] (CGP 0.0001 M, 2 hours); 188.7996 Disintegrations Per Minute in series [5] (CGP 0.0001 M, 4 hours). Further, the “mannitol penetration, Disintegrations Per Minute” value in series [5] (CGP 0.001 M, 2 hours) is on record as 23.11 Disintegrations Per Minute; in [5] (CGP 0.001 M, 4 hours) it was 150.2845 Disintegrations Per Minute. In addition, the “lowest CGP concentration at which the effect on mannitol penetration persists” value in series [5] (ischemia-mimicking conditions, Table 2 and FIG. 4) came out at 1000 nM. In addition, in series [6], the “time dependence of the effect on hypoxia induced mannitol flux” value was “diminished by four hours and absent by five hours”. The “effect on hypoxia induced mannitol flux” value in [6] (concentration dependent) is “significantly reduced”. In addition, the “effect on TEER during hypoxia (% of baseline TEER)” value in series [7] is “preserved TEER in a concentration dependent manner”. Besides, in [7], the “time dependence of the effect on TEER during hypoxia” value is recorded as “by five hours there was no longer a discernible effect”. Further, in [8], the “effect on cytomix-induced increase in mannitol permeability” value is “delayed the permeability increase in a concentration-dependent manner”. Besides, in series [9] (24 hours), the “CGP effect on TEER” value is “all CGP effect was lost”. In series [9] (ten hours, all CGP treated groups except 1 μM), the “TEER versus cytomix alone and control” value is “significantly greater than cytomix alone and not different from control”. Further, the solubility in water entry in series [10] is recorded as “approximately 1 gram in 100 mL”.
Turning to `CCCCCCCCCCCCC/C=C/[C@@H](O)[C@@H](N)COP(=O)(O)O` [S1P, sphingosine-1-phosphate], the “effect on tightness of existing tight junctions” value in series [11] was “increases”.
